Assay results taken from patent US12419847B2, “Composition and method for attenuating neuroinflammation, amyloidopathy and tauopathy” (Trustees of Dartmouth College, priority 2020, dated 2025).
Each block holds one compound with its values, some of them ahead of it.

Columns and labels:
[1] = test system: ACAT; experiment: ACAT enzyme activity in mouse tissue homogenates after IV injection of nanoparticles; type: in vivo; settings: delivered IV in nanoparticles
Experimental: A1^−/− refers to Acat1^−/− mouse. ACAT activity was determined by using a mixed liposome assay. N=4 for WT mice age (2-3 months) and gender matched. N=1 for A1^−/− mouse. N.S., not significant; P<0.05*, P<0.01**, P<0.001***. Analysis by two-way ANOVA. The significance is relative to vehicle-treated group.
A1^−/− refers to Acat1^−/− mouse. Note, the major isoenzyme in mouse liver is ACAT2. ACAT activity was determined without or with perfusion as indicated. N=3-4 for WT mice age- and gender-matched. N=1 for A1^−/− mouse. N.S., not significant; P<0.05*, P<0.01**, P<0.001***. Two-way ANOVA. The significance is relative to vehicle-treated group.
Mice were perfused before brains were isolated. N=2-3 WT mice/group. N=1 A1^−/− mouse. Statistical analysis, 2-way ANOVA. *P<0.05; **P<0.01; ***P<0.001.
As a component of the above-referenced analysis, a portion of the mice were treated with perfusion (to remove blood contamination from tissues).

[2] = molecular target: T1, ACAT1 (Homo sapiens (Human), UniProt P35610); experiment: human ACAT1 IC50 by mixed liposome assay
Experimental: In vitro Mixed Liposomal ACAT Activity Assay. […] Lysed cells were collected and aliquoted into pre-chilled tubes containing the liposomal mixture of taurocholate, phosphatidylcholine, and cholesterol. Tubes were vortexed and kept on ice for 5 minutes. Samples were then incubated in a 37° C. shaking water bath with ^3H-oleoyl CoA added for 10 minutes. The assay was stopped by adding CHCl3:MeOH (2:1). Lipids were extracted and analyzed by the same TLC method described herein.

[3] = test system: IL-4Rα; experiment: IL-4Rα protein content in HMC3 cells (western blot); type: cell-based, human; settings: for IL-4Rα protein content: human myelin debris-treated HMC3 cells, co-incubation
Experimental: . Exp. 130:56322) for 21 hours.
. […] Protein was isolated and analyzed by western blot analysis. Vinculin was the loading control. […]; **P<0.01.
Subsequently, myelin debris from human brains was prepared and it was observed that the cholesterol/protein ratio, as well as the protein composition between mouse myelin debris and human myelin debris, were very similar.

[4] = test system: ABCA1; experiment: ABCA1 protein content in human myelin debris-treated HMC3 cells; type: cell-based; settings: HMC3, human myelin debris 25 μg/mL cholesterol, 0.5 μM, 24 hours
Experimental: […]. Afterward, cells were harvested for western blot analyses. Lysates of HEK293 cells and lysates of HMC3 cells treated with 10 μM LXR agonist T0901317 for 24 hours were respectively used as negative and positive controls for ABCA1 signals. […] Data are expressed as mean±SEM.
Subsequently, myelin debris from human brains was prepared and it was observed that the cholesterol/protein ratio, as well as the protein composition between mouse myelin debris and human myelin debris, were very similar. […]

[5] = molecular target: T2, ACAT2 (Homo sapiens (Human), UniProt O75908); settings: cited from earlier work
[6] = mice, orally administered; cited from earlier work
[7] = in vivo; cited from earlier work
[8] = test system: primary cortical neurons; experiment: Lactate dehydrogenase (LDH) toxicity assay
Experimental: Cells were incubated in enriched neurobasal (NB) medium (Thermo Fisher Scientific, Waltham, MA) (500 mL NB media, 200 mM L-glutamine, B-27 with vitamin A, 1 mL penicillin-streptomycin (1%), and 340 mg glucose). Neurons were allowed to grow processes for 4-6 days prior to treatment.
Lactate Dehydrogenase (LDH) Toxicity Assay. Primary cortical neurons were harvested and maintained as described above. […] After treatment, the conditioned media from the cells were collected, spun at 12,000 rpm for 30 minutes to remove cellular debris, supernatant transferred to new tube, and frozen at −80° C. until time of assay. Using Cytotoxicity Detection Kit (LDH) (Roche), media and reaction mixture were mixed, incubated for 30 minutes at room temperature protected from light, and the absorbance was measured at 490 nm.

[9] = test system: N9 microglial cells; experiment: inflammatory responses to LPS in N9 microglial cells (qPCR, IκB-α western blot); type: cell-based, mouse; settings: 0.5 μM for 4 hours, then LPS 10-1000 ng/mL
Experimental: Six hours later, mRNA was extracted, and qPCR was performed to monitor pro-inflammatory (FIG. 4A) or anti-inflammatory (FIG. 4B) gene expression. […] Thirty minutes later, proteins were extracted for western blot analysis for total IκB-α, and for phosphorylated […]<0.01.

[10] = test system: IL-4Rα; experiment: IL-4Rα expression in N9 microglial cells (immunoblot)
Experimental: Cells were harvested for immunoblot analysis for IL-4Rα. Vinculin was the loading control. Data expressed as mean+/− SEM, * p<0.05, ** p<0.01.
IL-4Rα expression was determined by convention methods. 25 μg/mL cholesterol equals 38 μg/mL total myelin debris protein. Data are expressed as mean±SEM. *P<0.05; **P<0.01.

[11] = test system: amyloidopathy; settings: in vivo; cited from earlier work
[12] = molecular target: T1, ACAT1; settings: cited from earlier work
[13] = molecular target: T2, ACAT2; settings: cited from earlier work; remark: listed apart in the source
[14] = molecular target: mouse ACAT1 (Mus musculus (Mouse), UniProt Q61263); experiment: ACAT1 protein by western blot in microRNA-transfected NIH-3T3 mouse fibroblasts; type: cell-based; settings: for Relative Intensity (ACAT1 normalized to GAPDH): NIH-3T3, GFP-positive cells, 48 hours post-transfection; for reduction in ACAT1 protein content: mouse 3T3 fibroblasts, cDNA transfection
Description: NIH-3T3 mouse fibroblasts were transiently transfected with one of several rAAV vectors encoding EmGFP and microRNA (miR) #52, #53, #54 or #55. Forty-eight hours post-transfection, GFP-positive cells were harvested by FACS. GFP-positive cells were washed then lysed in 10% SDS and syringe homogenized. Twenty microgram of protein per sample was subjected to SDS-PAGE. After western blot analysis, bands were quantified with ImageJ. ACAT1 intensity was normalized to GAPDH as a loading control and expressed as relative intensity.
Four different siRNA molecules (#52-#55; Table 3) targeting the mouse Acat1 gene were inserted into an endogenous mouse microRNA (miR) scaffold using Invitrogen's RNAi design tool. The artificial miRs were ligated into the mammalian expression vector pcDNA6.2-GW/EmGFP-miR. […] The miRs were delivered to the cells using a standard cDNA transfection protocol.

T2 sequence (O75908 whole entry): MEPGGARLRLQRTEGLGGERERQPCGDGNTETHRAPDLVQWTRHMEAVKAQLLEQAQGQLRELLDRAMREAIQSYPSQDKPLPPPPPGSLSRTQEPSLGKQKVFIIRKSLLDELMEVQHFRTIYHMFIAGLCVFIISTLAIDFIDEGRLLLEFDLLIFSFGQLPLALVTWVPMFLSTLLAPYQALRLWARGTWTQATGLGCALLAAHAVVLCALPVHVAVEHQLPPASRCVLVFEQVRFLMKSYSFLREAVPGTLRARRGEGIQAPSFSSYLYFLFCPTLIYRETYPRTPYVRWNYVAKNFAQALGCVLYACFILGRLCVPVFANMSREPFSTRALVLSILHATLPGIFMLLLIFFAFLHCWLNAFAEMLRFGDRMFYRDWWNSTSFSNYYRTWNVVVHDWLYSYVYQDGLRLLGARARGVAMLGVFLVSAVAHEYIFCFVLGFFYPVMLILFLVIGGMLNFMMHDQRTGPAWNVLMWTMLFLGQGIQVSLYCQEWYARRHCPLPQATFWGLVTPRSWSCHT
T1 sequence (P35610 whole entry): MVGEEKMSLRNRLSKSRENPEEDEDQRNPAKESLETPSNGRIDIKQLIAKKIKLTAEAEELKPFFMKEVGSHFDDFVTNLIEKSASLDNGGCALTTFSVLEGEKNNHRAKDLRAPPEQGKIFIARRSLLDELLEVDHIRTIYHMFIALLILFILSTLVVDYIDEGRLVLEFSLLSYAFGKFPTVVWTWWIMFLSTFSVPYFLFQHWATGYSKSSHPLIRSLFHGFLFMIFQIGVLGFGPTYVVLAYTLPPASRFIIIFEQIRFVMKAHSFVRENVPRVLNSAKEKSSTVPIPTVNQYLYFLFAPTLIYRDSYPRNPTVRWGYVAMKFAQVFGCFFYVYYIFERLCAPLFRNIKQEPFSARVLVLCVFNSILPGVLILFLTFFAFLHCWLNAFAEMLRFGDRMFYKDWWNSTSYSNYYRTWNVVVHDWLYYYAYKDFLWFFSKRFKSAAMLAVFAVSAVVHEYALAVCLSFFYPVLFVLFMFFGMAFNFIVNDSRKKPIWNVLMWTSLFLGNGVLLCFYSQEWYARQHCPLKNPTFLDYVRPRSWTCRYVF

brain permeability [1]: brain permeable
IC50 [2]: 13 nM
potency relative to F12511 [2]: ~3 times
Compound: CCCCCCCCCCCCS(=O)(=O)[C@](F)(C(=O)Nc1cc(C)c(O)c(C)c1C)c1ccccc1 [Analog F26]

brain permeability [1]: permeable to the brain
Compound: CCCCCCCCCCCCS[C@H](C(=O)Nc1cc(C)c(O)c(C)c1C)c1ccccc1 [Analog F12511]
IL-4Rα protein content [3]: IL-4Rα protein content increases
ABCA1 protein content [4]: increased significantly
Ki [5]: 110 nM
half-life in the blood [6]: 1 to 2 h
clinical safety [7]: passed phase I clinical safety tests
cellular toxicity (LDH leakage) ([8]; 24 hours, 2 μM to 100 μM): minimal, if any, toxicity
cellular toxicity (LDH leakage) ([8]; 48 hours, very high concentrations (near 100 μM)): slight increase in toxicity
cellular toxicity (LDH leakage) ([8]; 72 hours, 10 μM): only very minimal toxicity
cellular toxicity (LDH leakage) ([8]; 72 hours, high concentration (near 100 μM)): more toxicity was detected

Compound: CSc1cc(C)nc(SC)c1NC(=O)CN1CCN(CCSc2nc3ccccc3[nH]2)CC1 [Analog K-604, 2-[4-[2-(benzimidazol-2-ylthio)ethyl]piperazin-1yl]-N-[2,4-bis(methylthio)-6-methyl-3-pyridyl]acetamide]
inflammatory responses to LPS [9]: attenuates inflammatory responses to LPS
enhancing effect on IL4R-α with myelin debris ([3]; HMC3 cells, mouse myelin debris, 21 hours): more robust
IL-4Rα protein content [3]: IL-4Rα protein content increases
ABCA1 protein content [4]: increased significantly
clinical safety [7]: passed phase I clinical safety tests
expression of the receptor IL-4Rα ([10]; 0.5 μM for 4 or 12 hours): increases expression of the receptor IL-4Rα
enhancing effect on IL4R-α with myelin debris ([10]; mouse myelin debris, 21 hours): more robust

Compound: CC(C)c1cc(C(C)C)c(CC(=O)NS(=O)(=O)Oc2c(C(C)C)cccc2C(C)C)c(C(C)C)c1 [CI 1011]
amyloidopathy in a mouse model for AD [11]: reduce amyloidopathy

Compound: CCCCCCCC[C@H](SCCCCCC)C(=O)Nc1c(SC)cc(C)nc1SC [CP113,818]
amyloidopathy in a mouse model for AD [11]: reduce amyloidopathy and rescue cognitive deficits

Compound: CCOC(=O)OC(=O)OCC [diethyl pyrocarbonate]
fold lower IC50 / greater activity for ACAT1 than for ACAT2 [12]: 4 fold

Compound: COc1ccc([C@@H](O)[C@@H](C)Oc2ccc([C@H]3O[C@H](c4ccc(O[C@H](C)[C@H](O)c5ccc6c(c5)OCO6)c(OC)c4)[C@H](C)[C@H]3C)cc2OC)cc1OC [manassantin B]
inhibition of hACAT-2 ([13]; at 1 mM): 32%

Compound: miR #52: artificial microRNA targeting mouse ACAT1 sequence GGAGCTGAAGCCACTATTTAT (SEQ ID NO:1) (expressed or natural sequence; the letters are possibly those of the target site)
Relative Intensity (ACAT1 normalized to GAPDH) [14]: 0.77

Compound: miR #53: artificial microRNA targeting mouse ACAT1 sequence CTGTTTGAAGTGGACCACATCA (SEQ ID NO:2) (expressed or natural sequence; the letters are possibly those of the target site)
Relative Intensity (ACAT1 normalized to GAPDH) [14]: 0.56

Compound: miR #54: artificial microRNA targeting mouse ACAT1 sequence CCCGGTTCATTCTGATACTGGA (SEQ ID NO:3) (expressed or natural sequence; target site or template, no part of the molecule)
Relative Intensity (ACAT1 normalized to GAPDH) [14]: 0.54
reduction in ACAT1 protein content [14]: 50-60%

Compound: miR #55: artificial microRNA targeting mouse ACAT1 sequence AACTACCCAAGGACTCCTACTGTA (SEQ ID NO:4) (expressed or natural sequence; the letters are possibly those of the target site)
Relative Intensity (ACAT1 normalized to GAPDH) [14]: 0.39
reduction in ACAT1 protein content [14]: 50-60%

Compound: miR Negative Control: negative control miR (SEQ ID NO:9) which does not match any known vertebrate gene (TACTGCGCGTGGAGACG)
Relative Intensity (ACAT1 normalized to GAPDH) [14]: 1.02

Compound: saucerneol B
IC50 ([13]; Lee et al. 2004, read-out: IC50 hACAT-2): 124000 nM
